From US20170037078A1, “2' -DIS[…] FOR TREATMENT OF THE FL[…] OF VIRUSES AND CANCER” (Cocrystal Pharma, Inc., priority 2014, published 2017)
Entries after “also recorded” stand apart in the source; their conditions may differ. Read-outs that look alike come from different tables or passages of the source.

How the values were obtained:
HepG2 cells [1] = test: Mitochondrial toxicity assay: mitochondrial and nuclear DNA levels in HepG2 cells; assay type: cell-based; settings: 14-day assay
Description: This assay was used in all studies described in this application that determine the effect of compounds on mitochondrial DNA content. In this assay, low-passage-number HepG2 cells were seeded at 5,000 cells/well in collagen-coated 96-well plates. Test compounds were added to the medium to obtain final concentrations of 0 μM, 0.1 μM, 10 μM and 100 μM. […] The mitochondrial cytochrome c oxidase subunit II (COXII) gene and the β-actin or rRNA gene were amplified from 5 μl of the eluted nucleic acids using a multiplex Q-PCR protocol with suitable primers and probes for both target and reference amplifications. […] For exon 3 of the […] gene (GenBank accession number E01094) the sense, probe, and antisense primers are 5′-[…]-3′, 5′-6-[…]-3′ and 5′-[…]-3′, respectively. The primers and probes for the rRNA gene are commercially available from Applied Biosystems. […] The arithmetic formula for this approach is given by 2-ΔΔCT, where ΔΔCT is (CT for average target test sample−CT for target control)−(CT for average reference test−CT for reference control) (see Johnson M R, K Wang, J B Smith, M J Heslin, R B Diasio. Quantitation of dihydropyrimidine dehydrogenase expression by real-time reverse transcription polymerase chain reaction. Anal. Biochem. 2000; 278:175-184). A decrease in mitochondrial DNA content in cells grown in the presence of drug indicated mitochondrial toxicity.

[2] = tested on: CEM (human lymphoblastoid); test: Cellular toxicity assay in CEM cells; assay type: cell-based
Description: (§1) The toxicity of the compounds was assessed in Vero, human PBM, CEM (human lymphoblastoid), MT-2, and HepG2 cells, as described previously (see Schinazi R. F., Sommadossi J.-P., Saalmann V., Cannon D. L., Xie M.-Y., Hart G. C., Smith G. A. & Hahn E. F. Antimicrob. Agents Chemother. 1990, 34, 1061-67). Cycloheximide was included as positive cytotoxic control, and untreated cells exposed to solvent were included as negative controls. The cytotoxicity IC50 was obtained from the concentration-response curve using the median effective method described previously (see Chou T.-C. & Talalay P. Adv. Enzyme Regul. 1984, 22, 27-55; Belen'kii M. S. & Schinazi R. F. Antiviral Res. 1994, 25, 1-11).

[3] = tested on: HCV GT 1b replicon (Huh-7 cells); test: HCV Replicon Assay; assay type: cell-based
Description: (§2) Huh 7 Clone B cells containing HCV Replicon RNA were seeded in a 96-well plate at 5000 cells/well, and the compounds tested at 10 μM in triplicate immediately after seeding. Following five days incubation (37° C., 5% CO2), total cellular RNA was isolated by using versaGene RNA purification kit from Gentra. Replicon RNA and an internal control (TaqMan rRNA control reagents, Applied Biosystems) were amplified in a single step multiplex Real Time RT-PCR Assay. The antiviral effectiveness of the compounds was calculated by subtracting the threshold RT-PCR cycle of the test compound from the threshold RT-PCR cycle of the no-drug control (ΔCt HCV). A ΔCt of 3.3 equals a 1-log reduction (equal to 90% less starting material) in Replicon RNA levels. The cytotoxicity of the compounds was also calculated by using the ΔCt rRNA values. 2′-C-Me-C was used as the positive control. To determine EC90 and IC50 values^2, ΔCt: values were first converted into fraction of starting material^3 and then were used to calculate the % inhibition.

Vero = test: Cellular toxicity assay in Vero cells; assay type: cell-based
Description: as §1

HepG2 cells [4] = test: Mitochondrial toxicity assay: lactic acid production in HepG2 cells; assay type: cell-based; settings: 14-day assay
Description: To measure the effects of the compounds on lactic acid production, HepG2 cells from a stock culture were diluted and plated in 12-well culture plates at 2.5×10^4 cells per well. […] […] The culture medium was then filtered, and the lactic acid content in the medium was determined using a colorimetric lactic acid assay (Sigma-Aldrich). Since lactic acid product can be considered a marker for impaired mitochondrial function, elevated levels of lactic acid production detected in cells grown in the presence of test compounds would indicate a drug-induced cytotoxic effect. • ii) Effect of Compounds on Mitochondrial DNA Synthesis:

Human PBM = test: Cellular toxicity assay in human PBM cells; assay type: cell-based; settings: Human PBM cells
Description: as §1

Huh-7 cells = test: Cytotoxicity in HCV replicon assay (ΔCt rRNA); assay type: cell-based; settings: HCV GT 1b replicon, Huh-7 cells
Description: as §2

[5] = tested on: Primary human bone marrow mononuclear cells; test: Bone Marrow Colony Forming Cell Assay (BFU-E); assay type: cell-based
Description: Primary human bone marrow mononuclear cells were obtained commercially from Cambrex Bioscience (Walkersville, Md.). CFU-GM assays were carried out using a bilayer soft agar in the presence of 50 units/mL human recombinant granulocyte/macrophage colony-stimulating factor, while BFU-E assays used a […] matrix containing 1 unit/mL erythropoietin (see Sommadossi J P, Carlisle R. Toxicity of 3′-azido-3′-deoxythymidine and 9-(1,3-dihydroxy-2-propoxymethyl) guanine for normal human hepatopoietic progenitor cells in vitro. Antimicrob. Agents Chemother. 1987; 31: 452-454; Sommadossi, J P, Schinazi, R F, Chu, C K, and Xie, M Y. Comparison of cytotoxicity of the (−) and (+) enantiomer of 2′,3′-dideoxy-3′-thiacytidine in normal human bone marrow progenitor cells. Biochem. Pharmacol. 1992; 44:1921-1925). Each experiment was performed in duplicate in cells from three different donors. AZT was used as a positive control. […] The 50% inhibitory concentration (IC50) was obtained by least-squares linear regression analysis of the logarithm of drug concentration versus BFU-E survival fractions. Statistical analysis was performed with Student's t test for independent non-paired samples.

[6] = Cellular toxicity assay in CEM cells; assay type: cell-based, human; settings: human, CEM lymphoblastoid cells, read-out: Cytotoxicity, CC50
Description: as §1

[7] = Cellular toxicity assay in Vero cells; assay type: cell-based; settings: African green monkey, read-out: Cytotoxicity, CC50
Description: as §1

[8] = Cellular toxicity assay in human PBM cells; assay type: cell-based; settings: human, human PBM cells; read-out: Cytotoxicity, CC50
Description: as §1

[9] = Cytotoxicity in HCV replicon assay (ΔCt rRNA); assay type: cell-based; settings: human, Huh-7 Clone B cells containing HCV GT 1b replicon RNA; HCV GT 1b replicon Huh-7 cells
Description: as §2

[10] = target: T1, Human DNA Polymerase Pol Gamma (Homo sapiens, UniProt P54098); test: Inhibition of Human DNA Polymerase Gamma; assay type: biochemical
T1 construct: made in house
T1 sequence (P54098 26-1239 limits assumed): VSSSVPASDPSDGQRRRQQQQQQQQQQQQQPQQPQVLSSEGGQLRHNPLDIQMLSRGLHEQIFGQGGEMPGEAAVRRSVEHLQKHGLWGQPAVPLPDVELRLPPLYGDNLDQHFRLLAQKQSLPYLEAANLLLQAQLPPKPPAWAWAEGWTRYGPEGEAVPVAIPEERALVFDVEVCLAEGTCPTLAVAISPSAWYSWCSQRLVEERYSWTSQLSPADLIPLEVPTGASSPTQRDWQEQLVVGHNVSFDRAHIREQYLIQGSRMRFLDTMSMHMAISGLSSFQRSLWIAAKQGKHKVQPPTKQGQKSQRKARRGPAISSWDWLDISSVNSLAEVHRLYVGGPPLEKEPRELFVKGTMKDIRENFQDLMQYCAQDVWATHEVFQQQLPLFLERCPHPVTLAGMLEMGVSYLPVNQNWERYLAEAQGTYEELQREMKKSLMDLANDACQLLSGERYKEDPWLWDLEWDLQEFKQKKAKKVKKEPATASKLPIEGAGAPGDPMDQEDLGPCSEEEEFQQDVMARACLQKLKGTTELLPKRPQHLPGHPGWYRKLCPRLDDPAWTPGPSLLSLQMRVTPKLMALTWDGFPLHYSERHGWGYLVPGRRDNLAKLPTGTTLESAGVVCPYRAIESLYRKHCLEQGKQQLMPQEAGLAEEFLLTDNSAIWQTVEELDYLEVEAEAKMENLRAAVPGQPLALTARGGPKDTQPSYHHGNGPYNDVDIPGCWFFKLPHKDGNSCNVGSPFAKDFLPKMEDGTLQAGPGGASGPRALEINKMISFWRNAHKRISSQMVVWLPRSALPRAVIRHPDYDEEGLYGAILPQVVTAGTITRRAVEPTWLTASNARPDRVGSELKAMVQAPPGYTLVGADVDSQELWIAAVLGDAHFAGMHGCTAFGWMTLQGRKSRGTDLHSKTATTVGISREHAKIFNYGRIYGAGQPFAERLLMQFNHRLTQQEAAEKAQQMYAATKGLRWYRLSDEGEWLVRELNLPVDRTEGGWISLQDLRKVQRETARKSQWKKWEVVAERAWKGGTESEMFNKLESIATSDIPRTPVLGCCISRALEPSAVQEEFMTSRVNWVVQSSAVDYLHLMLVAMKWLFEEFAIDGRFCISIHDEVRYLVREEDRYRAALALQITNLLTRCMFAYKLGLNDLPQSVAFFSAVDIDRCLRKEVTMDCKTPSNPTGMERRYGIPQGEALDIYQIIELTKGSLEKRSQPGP
T1 sequence (Q9UHN1 26-485 partner limits assumed): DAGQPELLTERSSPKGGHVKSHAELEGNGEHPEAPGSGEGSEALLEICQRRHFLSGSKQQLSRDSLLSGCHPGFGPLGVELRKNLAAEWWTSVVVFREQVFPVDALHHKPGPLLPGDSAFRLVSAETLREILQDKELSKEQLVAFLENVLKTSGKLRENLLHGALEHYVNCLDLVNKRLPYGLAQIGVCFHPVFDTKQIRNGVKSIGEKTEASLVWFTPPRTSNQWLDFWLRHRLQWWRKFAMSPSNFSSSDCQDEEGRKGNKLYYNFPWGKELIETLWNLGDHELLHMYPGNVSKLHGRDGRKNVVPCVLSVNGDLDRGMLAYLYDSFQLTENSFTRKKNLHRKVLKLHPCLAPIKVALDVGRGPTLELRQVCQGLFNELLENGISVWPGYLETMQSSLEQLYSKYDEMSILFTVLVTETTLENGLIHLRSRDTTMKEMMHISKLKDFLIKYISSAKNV

[11] = target: Human DNA Polymerase Pol Beta (Homo sapiens, UniProt P06746); test: Inhibition of Human DNA Polymerase Beta; assay type: biochemical

| SMILES | Summary (mitochondrial toxicity) (HepG2 cells [1]) | % Inhibition MtDNA (HepG2 cells [1]; 10 μM) | % Inhibition nDNA (HepG2 cells [1]; 10 μM) | MtDNA Content (% of control) (HepG2 cells [1]; 10 μM) | MtDNA Content (% of control) (HepG2 cells [1]; 50 μM) | IC50 (HepG2 cells [1]; read-out: IC50, MtDNA) | IC50 (HepG2 cells [1]; read-out: IC50, nDNA) | % inhibition at maximum concentration evaluated [2] | % inhibition at maximum concentration evaluated (Vero) | Lactic acid Production (% of control) (HepG2 cells [4]; 10 μM) | Lactic acid Production (% of control) (HepG2 cells [4]; 50 μM) | % inhibition at maximum concentration evaluated (Human PBM) | IC50 ([5]; Donor 2) | other results |
| --- | --- | --- | --- | --- | --- | --- | --- | --- | --- | --- | --- | --- | --- | --- |
| O=c1ccn(C2OC(CO)C(O)C2(F)Cl)c(=O)[nH]1 (centres unmarked) [Compound 10] | non-toxic; also recorded: not toxic | < 1% | 8.76% | 161 (113-230) % of control | 116 (77-175) % of control | > 50 µM | > 50 µM | −48.1% | −30.7% | 84.59 ± 7.30 % of control | 122.3 ± 5.80 % of control | −4.1% |  | % Inhibition MtDNA (HepG2 cells [1]; 50 μM): <1/<1%; % Inhibition nDNA (HepG2 cells [1]; 50 μM): <1/<1%; CC50 ([2]; read-out: Cytotoxicity, CC50): > 100 µM; EC50 [3]: > 10 µM; EC90 [3]: > 10 µM; CC50 (Vero; read-out: Cytotoxicity, CC50): > 100 µM; CC50 (Human PBM; read-out: Cytotoxicity, CC50): > 100 µM; CC50 (Huh-7 cells): > 10 µM |
| Cc1cn([C@H]2C[C@H](N=[N+]=[N-])[C@@H](CO)O2)c(=O)[nH]c1=O [AZT, reference compound] |  |  |  |  |  |  |  |  |  |  |  |  | 2.9 µM | IC50 ([5]; Donor 1): 0.3 µM |
| CC(C)OC(=O)[C@H](C)NP(=O)(OC[C@H]1O[C@@H](n2ccc(=O)[nH]c2=O)C(F)(Cl)[C@H]1O)Oc1ccccc1 (stereo partly drawn) [Compound 12, (2S)-isopropyl-2-(((4-chloro-5-(2,4-dioxo-3,4-dihydropyrimidin-1 (2H)-yl-4-fluoro-3-hydroxytetrahydrofuran-2-yl)methoxy) (phenoxy)phosphoryl)amino)propanoate] | non-toxic; also recorded: not toxic |  |  | 129 (117-143) % of control | 84 (68-102) % of control |  |  | −4.8% | 17.4% | 60.20 ± 1.25 % of control | 55.49 ± 0.88 % of control | 36.2% | > 100 µM | inhibition at 10 µM (HepG2 cells [1]; Homo sapiens, 336 h, 10 μM, read-out: % Inhibition MtDNA): < 1%; inhibition at 10 µM (HepG2 cells [1]; Homo sapiens, 336 h, 10 μM, read-out: % Inhibition nDNA): < 1%; inhibition at 50 µM (HepG2 cells [1]; Homo sapiens, 336 h, 50 μM, read-out: % Inhibition MtDNA): 27%; inhibition at 50 µM (HepG2 cells [1]; Homo sapiens, 336 h, 50 μM, read-out: % Inhibition nDNA): 12.8%; IC50 (HepG2 cells [1]; Homo sapiens, 336 h, read-out: IC50, MtDNA): > 50 µM; IC50 (HepG2 cells [1]; Homo sapiens, 336 h, read-out: IC50, nDNA): > 50 µM; CC50 [6]: > 100 µM; EC50 ([3]; Hepatitis C virus, GT1B): 0.1 to 1 µM; EC90 ([3]; Hepatitis C virus, GT1B): 0.1 to 1 µM; CC50 [7]: > 100 µM; IC50 ([5]; Homo sapiens, Donor 1): > 100 µM; CC50 [8]: > 100 µM; CC50 at 5 days [9]: > 10 µM |
| Cc1cn([C@H]2CC[C@@H](COP(=O)(O)OP(=O)(O)OP(=O)(O)O)O2)c(=O)[nH]c1=O [ddTTP] |  |  |  |  |  |  |  |  |  |  |  |  |  | IC50 [10]: 43 µM; IC50 [11]: 18 µM |
| Nc1ccn([C@H]2CC[C@@H](CO)O2)c(=O)n1 [ddC, reference compound] | toxic | 95.5% | 52.6% | 9.5 (5.7-16.0) % of control |  | < 10 µM | ≤ 10 µM |  |  | 325.93 ± 27.05 % of control |  |  |  |  |
